# Assay results from US9708314B2, “Heterocyclic amide compound” (NISSAN CHEMICAL INDUSTRIES, LTD., priority 2013, dated 2017).
# Tests used:
# Type in all cases: in vivo
# [1] = test system: transplanted Oryza sativa; assay: Test Example 1: effect on crop, application before weed generation in submerged conditions; settings: Seventeenth Table; for a: transplanted Oryza sativa (effect on crop grade): Application herbicide amount 320 g/ha
# Outline: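 Rating, on a six-step scale from almost no effect (0) to almost completely withered (5), was made three weeks after pre-emergence treatment. Treatment was surface application to flooded pots at g/ha rates, with plants kept at 25° C. to 30° C.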
# [2] = test system: Echinochloa oryzacola Vasing.; assay: Test Example 2: herbicidal activity, application during weed generation in submerged conditions; settings: Eighteenth Table
# Outline: (§1)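 Post-emergence application under submerged conditions: water-diluted emulsion dosed onto the water surface (g/ha) when weeds reach one- to two-leaf stage. Soil flooded to 4 cm; greenhouse 25–30 °C. Herbicidal ratio graded in six classes, 0 (≤5%) to 5 (≥90%), at three weeks.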
# Monochoria vaginalis = assay: as above; settings: Eighteenth Table; application herbicide amount 320 g/ha
# Outline: as §1
# Scirpus juncoides = assay: as above; settings: Eighteenth Table
# Outline: as §1
# [3] = application herbicide amount 320 g/ha
# [4] = application herbicide amount 260 g/ha
smiles,measurement,setting,value
Cc1nnc(NC(=O)c2ccc(C(F)(F)F)n3c(SC4CCCC4)nnc23)o1 [1-154],a: transplanted Oryza sativa (effect on crop grade),[1],0 (Herbicidal ratio of 5% or less (almost no effect))
same,A (Echinochloa oryzicola Vasing.) herbicidal ratio grade,[2]; [3],0 (Herbicidal ratio of 5% or less (almost no effect))
same,C (Monochoria vaginalis) herbicidal ratio grade,Monochoria vaginalis,0 (Herbicidal ratio of 5% or less (almost no effect))
same,B (Scirpus juncoides) herbicidal ratio grade,Scirpus juncoides; [3],2 (Herbicidal ratio of 20% or more and less than 40%)
O=C(Nc1nnco1)c1ccc(C(F)(F)F)n2c(SC3CCCC3)nnc12 [1-155],a: transplanted Oryza sativa (effect on crop grade),[1],0 (Herbicidal ratio of 5% or less (almost no effect))
same,A (Echinochloa oryzicola Vasing.) herbicidal ratio grade,[2]; [3],1 (Herbicidal ratio of 5% or more and less than 20%)
same,C (Monochoria vaginalis) herbicidal ratio grade,Monochoria vaginalis,0 (Herbicidal ratio of 5% or less (almost no effect))
same,B (Scirpus juncoides) herbicidal ratio grade,Scirpus juncoides; [3],2 (Herbicidal ratio of 20% or more and less than 40%)
Cc1nnc(NC(=O)c2ccc(C(F)(F)F)n3c(SCc4ccc(Cl)nc4)nnc23)o1 [1-156],a: transplanted Oryza sativa (effect on crop grade),[1],0 (Herbicidal ratio of 5% or less (almost no effect))
same,A (Echinochloa oryzicola Vasing.) herbicidal ratio grade,[2]; [3],0 (Herbicidal ratio of 5% or less (almost no effect))
same,C (Monochoria vaginalis) herbicidal ratio grade,Monochoria vaginalis,2 (Herbicidal ratio of 20% or more and less than 40%)
same,B (Scirpus juncoides) herbicidal ratio grade,Scirpus juncoides; [3],3 (Herbicidal ratio of 40% or more and less than 70%)
O=C(Nc1nnco1)c1ccc(C(F)(F)F)n2c(SCc3ccc(Cl)nc3)nnc12 [1-157],a: transplanted Oryza sativa (effect on crop grade),[1],2 (Herbicidal ratio of 20% or more and less than 40%)
same,A (Echinochloa oryzicola Vasing.) herbicidal ratio grade,[2]; [3],0 (Herbicidal ratio of 5% or less (almost no effect))
same,C (Monochoria vaginalis) herbicidal ratio grade,Monochoria vaginalis,0 (Herbicidal ratio of 5% or less (almost no effect))
same,B (Scirpus juncoides) herbicidal ratio grade,Scirpus juncoides; [3],1 (Herbicidal ratio of 5% or more and less than 20%)
COc1ccc(N(C)c2nnc3c(C(=O)Nc4nnco4)ccc(C(F)(F)F)n23)cc1 [1-171],a: transplanted Oryza sativa (effect on crop grade),[1],1 (Herbicidal ratio of 5% or more and less than 20%)
same,A (Echinochloa oryzicola Vasing.) herbicidal ratio grade,[2]; [3],4 (Herbicidal ratio of 70% or more and less than 90%)
C=CCN(C)c1nnc2c(C(=O)Nc3nnco3)ccc(C(F)(F)F)n12 [1-172],a: transplanted Oryza sativa (effect on crop grade),[1],1 (Herbicidal ratio of 5% or more and less than 20%)
same,A (Echinochloa oryzicola Vasing.) herbicidal ratio grade,[2]; [3],3 (Herbicidal ratio of 40% or more and less than 70%)
same,C (Monochoria vaginalis) herbicidal ratio grade,Monochoria vaginalis,3 (Herbicidal ratio of 40% or more and less than 70%)
same,B (Scirpus juncoides) herbicidal ratio grade,Scirpus juncoides; [3],4 (Herbicidal ratio of 70% or more and less than 90%)
Cn1nnnc1NC(=O)c1ccc(C(F)(F)F)n2cnnc12 [2-001],a: transplanted Oryza sativa (effect on crop grade),[1],0 (Herbicidal ratio of 5% or less (almost no effect))
same,A (Echinochloa oryzicola Vasing.) herbicidal ratio grade,[2]; [3],2 (Herbicidal ratio of 20% or more and less than 40%)
same,C (Monochoria vaginalis) herbicidal ratio grade,Monochoria vaginalis,3 (Herbicidal ratio of 40% or more and less than 70%)
same,B (Scirpus juncoides) herbicidal ratio grade,Scirpus juncoides; [3],2 (Herbicidal ratio of 20% or more and less than 40%)
Cc1nnc2c(C(=O)Nc3nnnn3C)ccc(C(F)(F)F)n12 [2-002],a: transplanted Oryza sativa (effect on crop grade),[1],0 (Herbicidal ratio of 5% or less (almost no effect))
same,A (Echinochloa oryzicola Vasing.) herbicidal ratio grade,[2]; [3],2 (Herbicidal ratio of 20% or more and less than 40%)
same,C (Monochoria vaginalis) herbicidal ratio grade,Monochoria vaginalis,2 (Herbicidal ratio of 20% or more and less than 40%)
same,B (Scirpus juncoides) herbicidal ratio grade,Scirpus juncoides; [3],1 (Herbicidal ratio of 5% or more and less than 20%)
CC(C)c1nnc2c(C(=O)Nc3nnnn3C)ccc(C(F)(F)F)n12 [2-003],a: transplanted Oryza sativa (effect on crop grade),[1],4 (Herbicidal ratio of 70% or more and less than 90%)
same,A (Echinochloa oryzicola Vasing.) herbicidal ratio grade,[2]; [3],5 (Herbicidal ratio of 90% or more (almost completely withered))
same,C (Monochoria vaginalis) herbicidal ratio grade,Monochoria vaginalis,4 (Herbicidal ratio of 70% or more and less than 90%)
same,B (Scirpus juncoides) herbicidal ratio grade,Scirpus juncoides; [3],3 (Herbicidal ratio of 40% or more and less than 70%)
Cn1nnnc1NC(=O)c1ccc(C(F)(F)F)n2c(CS(C)(=O)=O)nnc12 [2-034],a: transplanted Oryza sativa (effect on crop grade),[1],4 (Herbicidal ratio of 70% or more and less than 90%)
same,A (Echinochloa oryzicola Vasing.) herbicidal ratio grade,[2]; [3],5 (Herbicidal ratio of 90% or more (almost completely withered))
same,C (Monochoria vaginalis) herbicidal ratio grade,Monochoria vaginalis,4 (Herbicidal ratio of 70% or more and less than 90%)
same,B (Scirpus juncoides) herbicidal ratio grade,Scirpus juncoides; [3],4 (Herbicidal ratio of 70% or more and less than 90%)
Cn1nnnc1NC(=O)c1ccc(C(F)(F)F)n2c(C[S+]([O-])CC(F)(F)F)nnc12 (stereo not shown) [2-035],a: transplanted Oryza sativa (effect on crop grade),[1],4 (Herbicidal ratio of 70% or more and less than 90%)
same,A (Echinochloa oryzicola Vasing.) herbicidal ratio grade,[2]; [3],2 (Herbicidal ratio of 20% or more and less than 40%)
same,C (Monochoria vaginalis) herbicidal ratio grade,Monochoria vaginalis,3 (Herbicidal ratio of 40% or more and less than 70%)
same,B (Scirpus juncoides) herbicidal ratio grade,Scirpus juncoides; [3],2 (Herbicidal ratio of 20% or more and less than 40%)
Cn1nnnc1NC(=O)c1ccc(C(F)(F)F)n2c(S(C)(=O)=O)nnc12 [2-037],a: transplanted Oryza sativa (effect on crop grade),[1],4 (Herbicidal ratio of 70% or more and less than 90%)
same,A (Echinochloa oryzicola Vasing.) herbicidal ratio grade,[2]; [3],5 (Herbicidal ratio of 90% or more (almost completely withered))
same,C (Monochoria vaginalis) herbicidal ratio grade,Monochoria vaginalis,5 (Herbicidal ratio of 90% or more (almost completely withered))
same,B (Scirpus juncoides) herbicidal ratio grade,Scirpus juncoides; [3],5 (Herbicidal ratio of 90% or more (almost completely withered))
CCS(=O)(=O)c1nnc2c(C(=O)Nc3nnnn3C)ccc(C(F)(F)F)n12 [2-038],a: transplanted Oryza sativa (effect on crop grade),[1],4 (Herbicidal ratio of 70% or more and less than 90%)
same,A (Echinochloa oryzicola Vasing.) herbicidal ratio grade,[2]; [3],5 (Herbicidal ratio of 90% or more (almost completely withered))
same,C (Monochoria vaginalis) herbicidal ratio grade,Monochoria vaginalis,5 (Herbicidal ratio of 90% or more (almost completely withered))
same,B (Scirpus juncoides) herbicidal ratio grade,Scirpus juncoides; [3],4 (Herbicidal ratio of 70% or more and less than 90%)
CCOC(=O)Cc1nnc2c(C(=O)Nc3nnnn3C)ccc(C(F)(F)F)n12 [2-040],a: transplanted Oryza sativa (effect on crop grade),[1],4 (Herbicidal ratio of 70% or more and less than 90%)
same,A (Echinochloa oryzicola Vasing.) herbicidal ratio grade,[2]; [3],4 (Herbicidal ratio of 70% or more and less than 90%)
same,C (Monochoria vaginalis) herbicidal ratio grade,Monochoria vaginalis,4 (Herbicidal ratio of 70% or more and less than 90%)
same,B (Scirpus juncoides) herbicidal ratio grade,Scirpus juncoides; [3],3 (Herbicidal ratio of 40% or more and less than 70%)
COCCn1nnnc1NC(=O)c1ccc(C(F)(F)F)n2c(C(C)C)nnc12 [2-041],a: transplanted Oryza sativa (effect on crop grade),[1],0 (Herbicidal ratio of 5% or less (almost no effect))
same,A (Echinochloa oryzicola Vasing.) herbicidal ratio grade,[2]; [3],5 (Herbicidal ratio of 90% or more (almost completely withered))
same,C (Monochoria vaginalis) herbicidal ratio grade,Monochoria vaginalis,3 (Herbicidal ratio of 40% or more and less than 70%)
same,B (Scirpus juncoides) herbicidal ratio grade,Scirpus juncoides; [3],4 (Herbicidal ratio of 70% or more and less than 90%)
Cc1ccc(-c2nnc3c(C(=O)Nc4nnnn4C)ccc(C(F)(F)F)n23)cc1 [2-042],a: transplanted Oryza sativa (effect on crop grade),[1],5 (Herbicidal ratio of 90% or more (almost completely withered))
same,A (Echinochloa oryzicola Vasing.) herbicidal ratio grade,[2]; [3],4 (Herbicidal ratio of 70% or more and less than 90%)
same,C (Monochoria vaginalis) herbicidal ratio grade,Monochoria vaginalis,4 (Herbicidal ratio of 70% or more and less than 90%)
same,B (Scirpus juncoides) herbicidal ratio grade,Scirpus juncoides; [3],3 (Herbicidal ratio of 40% or more and less than 70%)
Cn1nnnc1NC(=O)c1ccc(C(F)(F)F)n2c(-c3ccc(F)cc3)nnc12 [2-043],a: transplanted Oryza sativa (effect on crop grade),[1],4 (Herbicidal ratio of 70% or more and less than 90%)
same,A (Echinochloa oryzicola Vasing.) herbicidal ratio grade,[2]; [3],5 (Herbicidal ratio of 90% or more (almost completely withered))
same,C (Monochoria vaginalis) herbicidal ratio grade,Monochoria vaginalis,4 (Herbicidal ratio of 70% or more and less than 90%)
same,B (Scirpus juncoides) herbicidal ratio grade,Scirpus juncoides; [3],4 (Herbicidal ratio of 70% or more and less than 90%)
COc1cccc(-c2nnc3c(C(=O)Nc4nnnn4C)ccc(C(F)(F)F)n23)c1 [2-044],a: transplanted Oryza sativa (effect on crop grade),[1],4 (Herbicidal ratio of 70% or more and less than 90%)
same,A (Echinochloa oryzicola Vasing.) herbicidal ratio grade,[2]; [3],5 (Herbicidal ratio of 90% or more (almost completely withered))
same,C (Monochoria vaginalis) herbicidal ratio grade,Monochoria vaginalis,4 (Herbicidal ratio of 70% or more and less than 90%)
same,B (Scirpus juncoides) herbicidal ratio grade,Scirpus juncoides; [3],4 (Herbicidal ratio of 70% or more and less than 90%)
COc1ccccc1-c1nnc2c(C(=O)Nc3nnnn3C)ccc(C(F)(F)F)n12 [2-045],a: transplanted Oryza sativa (effect on crop grade),[1],5 (Herbicidal ratio of 90% or more (almost completely withered))
same,A (Echinochloa oryzicola Vasing.) herbicidal ratio grade,[2]; [3],5 (Herbicidal ratio of 90% or more (almost completely withered))
same,C (Monochoria vaginalis) herbicidal ratio grade,Monochoria vaginalis,4 (Herbicidal ratio of 70% or more and less than 90%)
same,B (Scirpus juncoides) herbicidal ratio grade,Scirpus juncoides; [3],3 (Herbicidal ratio of 40% or more and less than 70%)
COC(=O)Cn1nnnc1NC(=O)c1ccc(C(F)(F)F)n2c(C(C)C)nnc12 [2-046],a: transplanted Oryza sativa (effect on crop grade),[1],0 (Herbicidal ratio of 5% or less (almost no effect))
CC(C)Nc1nnc2c(C(=O)Nc3nnnn3C)ccc(C(F)(F)F)n12 [2-066],a: transplanted Oryza sativa (effect on crop grade),[1],3 (Herbicidal ratio of 40% or more and less than 70%)
same,A (Echinochloa oryzicola Vasing.) herbicidal ratio grade,[2]; [3],3 (Herbicidal ratio of 40% or more and less than 70%)
same,C (Monochoria vaginalis) herbicidal ratio grade,Monochoria vaginalis,3 (Herbicidal ratio of 40% or more and less than 70%)
Cn1nnnc1NC(=O)c1ccc(C(F)(F)F)n2c(CO)nnc12 [2-108],a (transplanted Oryza sativa) effect on crop grade,[1]; [3],0 (Herbicidal ratio of 5% or less (almost no effect))
same,A (Echinochloa oryzicola Vasing.) herbicidal ratio grade,[2]; [3],0 (Herbicidal ratio of 5% or less (almost no effect))
same,B (Scirpus juncoides) herbicidal ratio grade,Scirpus juncoides; [3],1 (Herbicidal ratio of 5% or more and less than 20%)
Cn1nnnc1NC(=O)c1ccc(C(F)(F)F)n2c(C=O)nnc12 [2-109],a (transplanted Oryza sativa) effect on crop grade,[1]; [4],0 (Herbicidal ratio of 5% or less (almost no effect))
same,A (Echinochloa oryzicola Vasing.) herbicidal ratio grade,[2]; [4],1 (Herbicidal ratio of 5% or more and less than 20%)
same,B (Scirpus juncoides) herbicidal ratio grade,Scirpus juncoides; [4],1 (Herbicidal ratio of 5% or more and less than 20%)
Cc1nnc(NC(=O)c2ccc(C(F)(F)F)n3nc(C(C)C)nc23)o1 [7-001],a (transplanted Oryza sativa) effect on crop grade,[1]; [3],0 (Herbicidal ratio of 5% or less (almost no effect))
